This note sets out measurements from patent publication US20110123600A1, “Use of alkylureas for treating acne” (priority 2005, published 2011).

For one data set, the system named is Staphylococcus aureus. The experiment in a line: Aerobic plate count after one hour contact with butylurea solution. It counts as cell-based. To be noted: 0.4M BU, vs saline control. The protocol: (§1) Preparation of Sample: 11.6 grams of butyl urea (BU) sample was weighed accurately and dissolved in de-ionized water to 100 ml into 100 ml volumetric flask and mixed to form a 1M (11.6% w/v) solution. Then, 10.0 ml of the 1M solution was mixed with 12.7 ml de-ionized water to form a 0.44M (5.1% w/v) solution. (10.0 ml×1.0M÷22.7 ml=0.44M). Finally, the 0.44M solution was filtered through sterile syringe filters to sterilize.
(§2) Procedure: For the 0.4M butylurea solutions, 4.5 ml was aliquoted into seven (7) 16×150 mm sterile glass test tubes. 4.5 ml sterile physiological saline was also aliquoted into seven (7) 16×150 […] sterile glass test tubes as a control.
(§3) 0.6 ml of culture suspension was inoculated into 0.44M BU and saline control tube for each organism tested and mixed. After one hour contact time a 1.0 ml sample culture mixer was diluted serially into 10^6 into 9.0 ml GBL Stat Broth (TSB; 0.5% Leethen; 4% Tween 20 and 0.1% […]).
(§4) One ml Aerobic Plate Count was performed from each dilution tubes using Trypticase Soy Agar. Plates were incubated at 37±° C. for 48 hours. Except Candida albicans plates were poured with Sabourad Dextrose Agar and incubated at 20 to 25° C. for 5 to 7 days. Colonies were counted using a Quebec Colony Counter.

In another data set the test system is Streptococcus pyogenes. Described as above. It counts as cell-based. The conditions noted are these: 0.4M BU, vs saline control. The protocol: as §1, §2, §3, §4
A further data set has as its system Candida albicans. The experiment in a line: Plate count after one hour contact with butylurea solution. The data set is classed as cell-based. To be noted: 0.4M BU, vs saline control. As for the experimental part: as §1, §2, §3, §4
For data set [1], the system named is inflamed cystic lesions of acne. The experiment in a line: BU in polymer gel applied topically to patients with inflamed cystic lesions of acne. It counts as in vivo. The conditions noted are these: polymer gel releasing 0.4 to 0.5 molar BU, 11 patients. The protocol:
BU in polymer gels: BU incorporated in a polymer gel designed to release the chemical within 30 minutes to 3 hours was administered topically to 11 patients with inflamed cystic lesions of acne. The BU end concentration to be released was between 0.4 to 0.5 molar. Applications to the lesions alone were made 3× daily for 1 week. […] The purulent discharge as well as the inflammatory component of all lesions resolved often within 24 hours.

A further data set relates to acne lesions. The experiment in a line: BU aqueous solution applied to acne lesions in adolescents. The data set is classed as in vivo. The conditions noted are these: 0.5 molar (5.8% w/v) aqueous solution, twice daily, 5 adolescents. The protocol: BU in an squeous solution: A 0.5 molar (5.8% w/v) solution of BU was applied twice daily with Q tips to acne lesions in 5 adolescents. BU was applied to cystic purulent lesions, to non cystic lesions with erythema and to early lesions with minimal inflammation. The inflammatory response resolved in all lesions within 24-48 hours, whereas purulent cystic lesions healed without scarring within 3-7 days.

As for `CCCCNC(N)=O` [BU, butyl urea], the “Reduction in bacterial count” value in the data set on Staphylococcus aureus is reported as “Not Active”. The “log Reduction in bacterial count” value in the data set on Streptococcus pyogenes is on record as 2 log Reduction. In addition, the “log Reduction in count” value with Candida albicans turned out to be 0.4 log Reduction. In data set [1] (topical 3x daily for 1 week), the Local adverse reactions result is reported as “no local adverse reactions were noted” and the “Resolution of lesions by the end of the treatment” value is on record as “Most of the lesions resolved”. In data set [1] (topical 3x daily, 'often'), the “Time to resolution of purulent discharge and inflammatory component of all lesions” value was at most 24 h. Besides, in the data set on acne lesions, the “Time to healing of purulent cystic lesions without scarring” value was 3 to 7 days and the “Time to resolution of inflammatory response in all lesions” value fell in the range of 24 to 48 h.
